Activity calls are given as the source filed them. No cut-off for these calls is given here.
Key:
[1] = biological target: Sphingosine 1-phosphate receptor 1 (Homo sapiens) (UniProt P21453); experiment: Agonist activity at S1P1 (unknown origin) relative to control; conditions: filed as agonist
[2] = biological target: T1, Sphingosine 1-phosphate receptor 3 (Homo sapiens, UniProt Q99500); experiment: Agonist activity at S1P3 (unknown origin)
[3] = biological target: T1, Sphingosine 1-phosphate receptor 3; experiment: Agonist activity at S1P3 (unknown origin) relative to control
[4] = Apparent permeability across apical to basolateral side in pig LLC-PK1 cells; assay type: ADME, cell-based, Sus scrofa

T1 sequence (Q99500 whole entry): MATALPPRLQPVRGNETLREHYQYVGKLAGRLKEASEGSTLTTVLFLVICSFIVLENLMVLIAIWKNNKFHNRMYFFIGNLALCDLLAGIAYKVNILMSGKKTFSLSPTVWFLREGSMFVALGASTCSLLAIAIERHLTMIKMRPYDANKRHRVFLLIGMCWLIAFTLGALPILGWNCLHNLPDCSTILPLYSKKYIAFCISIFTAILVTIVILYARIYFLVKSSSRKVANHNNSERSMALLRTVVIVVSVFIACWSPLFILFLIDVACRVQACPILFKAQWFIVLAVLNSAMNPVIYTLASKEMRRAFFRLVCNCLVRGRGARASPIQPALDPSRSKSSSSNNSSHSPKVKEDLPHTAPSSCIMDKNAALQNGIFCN
Sequence of Sphingosine 1-phosphate receptor 1 (Homo sapiens) (P21453 whole entry): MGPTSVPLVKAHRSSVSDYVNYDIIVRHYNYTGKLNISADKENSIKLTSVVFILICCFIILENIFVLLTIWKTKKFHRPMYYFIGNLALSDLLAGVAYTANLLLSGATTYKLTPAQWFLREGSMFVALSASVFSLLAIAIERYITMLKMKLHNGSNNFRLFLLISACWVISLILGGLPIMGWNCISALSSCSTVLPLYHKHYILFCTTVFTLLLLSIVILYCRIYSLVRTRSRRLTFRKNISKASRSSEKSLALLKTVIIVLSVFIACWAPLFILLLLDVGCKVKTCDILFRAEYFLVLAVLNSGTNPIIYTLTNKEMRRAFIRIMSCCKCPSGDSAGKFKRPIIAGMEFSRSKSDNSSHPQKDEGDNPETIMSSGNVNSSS

| Emax [1] [%] | EC50 [2] | Emax [3] | Papp A→B [4] [nm/s] | Emax ([3]; filed as agonist) [%] | SMILES |
| --- | --- | --- | --- | --- | --- |
| 100 | Not Active | inactive | 22 | – | Cn1cc(C(=O)Nc2ccc(-c3ccccc3)c(C(F)(F)F)c2)c(=O)c2cccnc21 |
| 120 | Not Active | inactive | < 10 | – | Cn1cc(C(=O)Nc2ccc(-c3ccccc3)c(C(F)(F)F)n2)c(=O)c2ccccc21 |
| 100 | Not Active | inactive | 57 | – | Cn1cc(C(=O)Nc2ccc(-c3ccccc3)c(C(F)(F)F)c2)c(=O)c2cnccc21 |
| 130 | Not Active | inactive | 23 | – | Cn1nc(C(=O)Nc2ccc(-c3ccccc3)c(C(F)(F)F)c2)c(=O)c2ccccc21 |
| 120 | Not Active | inactive | 67 | – | Cn1cc(C(=O)Nc2ccc(-c3ccccc3)c(C(F)(F)F)n2)c(=O)c2cnccc21 |
| 59 | Not Active | inactive | < 10 | – | Cn1cc(C(=O)Nc2cc(C(F)(F)F)c(-c3ccccc3)cn2)c(=O)c2ccccc21 |
| 110 | Not Active | inactive | 180 | – | Cn1cc(C(=O)Nc2ccc(-c3cccnc3)c(C(F)(F)F)c2)c(=O)c2ccccc21 |
| 170 | Not Active | inactive | 110 | – | Cn1cc(C(=O)Nc2cnc(-c3ccccc3)c(C(F)(F)F)c2)c(=O)c2ccccc21 |
| 110 | – | – | 12 | 92 | Cn1cc(C(=O)Nc2ccc(-c3ccccc3)c(C(F)(F)F)c2)c(=O)c2ccccc21 |
| 86 | Not Active | inactive | 160 | – | Cn1cc(C(=O)Nc2ccc(-c3ccccc3)c(C(F)(F)F)c2)c(=O)c2ncccc21 |
| 120 | Not Active | inactive | 34 | – | Cn1cc(C(=O)Nc2ccc(-c3ccccc3)c(C(F)(F)F)c2)c(=O)c2ccncc21 |
| 110 | Not Active | inactive | 150 | – | Cn1cc(C(=O)Nc2ccc(-c3ccncc3)c(C(F)(F)F)c2)c(=O)c2ccccc21 |
| 110 | Not Active | inactive | 110 | – | Cn1cc(C(=O)Nc2ccc(-c3ccccn3)c(C(F)(F)F)c2)c(=O)c2ccccc21 |
